From ChEMBL document CHEMBL1150985, “Macrolide-type motilin receptor agonists: Acid-stable 12-O-methyl-8,9-anhydroerythromycin A 6,9-hemiacetals” (Bioorg Med Chem Lett, 1995)
Converted amounts (≈) assume the structure as drawn.

What was measured:
Staphylococcus aureus = test: Tested for the minimum inhibitory concentration by agar dilution method against Staphylococcus aureus 209P; type: functional
Motilin receptor [1] = target: T1, Motilin receptor (Homo sapiens, UniProt O43193); test: Compound was tested for in vitro motilin receptor binding affinity after treatment with hydrochloric acid solution (pH 2.5)
Escherichia coli = test: Tested for the minimum inhibitory concentration by agar dilution method against Escherichia coli NIHJ JC-2; type: functional
Motilin receptor [2] = target: T1, Motilin receptor; test: Compound was tested for in vitro motilin receptor binding affinity
Bacillus subtilis = test: Compound was tested for the minimum inhibitory concentration by agar dilution method against Bacillus subtilis ATCC 6633; type: functional
Streptococcus pneumoniae = test: Tested for the minimum inhibitory concentration by agar dilution method against Streptococcus pneumoniae No. 12; type: functional
Oryctolagus cuniculus = species: Oryctolagus cuniculus; test: Compound was tested for the in vitro smooth muscle contractile activity; type: functional; conditions: Muscle tissue
Klebsiella pneumoniae = test: Tested for the minimum inhibitory concentration by agar dilution method against Klebsiella pneumoniae IFO 3512; type: functional
Canis familiaris [3] = test: Motor index (MI) was reported in vivo for smooth muscle contractile activity after i.v. administration of the compound; type: functional, Canis lupus familiaris, Muscle tissue
Canis familiaris [4] = test: Motor index (MI) was reported in vivo for smooth muscle contractile activity after i.g. administration of the compound; type: functional, Canis lupus familiaris, Muscle tissue

T1 sequence (O43193 whole entry): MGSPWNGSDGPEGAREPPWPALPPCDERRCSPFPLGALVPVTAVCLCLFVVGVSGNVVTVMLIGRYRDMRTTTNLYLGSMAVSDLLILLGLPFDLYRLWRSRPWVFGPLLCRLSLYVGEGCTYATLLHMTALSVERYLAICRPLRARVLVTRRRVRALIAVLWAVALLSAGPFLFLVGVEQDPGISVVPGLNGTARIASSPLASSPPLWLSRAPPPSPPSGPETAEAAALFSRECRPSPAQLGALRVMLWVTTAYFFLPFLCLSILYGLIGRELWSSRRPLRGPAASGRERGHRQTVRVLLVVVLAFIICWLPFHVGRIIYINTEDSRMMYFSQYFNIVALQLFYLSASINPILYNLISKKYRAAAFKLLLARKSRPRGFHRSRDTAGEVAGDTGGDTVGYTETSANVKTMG

Row | SMILES | MIC (Staphylococcus aureus) | IC50 (Motilin receptor [1]) | MIC (Escherichia coli) | IC50 (Motilin receptor [2]) | MIC (Bacillus subtilis) | MIC (Streptococcus pneumoniae) | EC50 (Oryctolagus cuniculus) | MIC (Klebsiella pneumoniae) | MI100 (Canis familiaris [3]) | MI100 (Canis familiaris [4])
1 | CCC1OC(=O)C(C)C(O[C@H]2C[C@@](C)(OC)[C@@H](O)C(C)O2)C(C)[C@@H](OC2OC(C)CC(N(C)C)[C@H]2O)[C@]2(C)CC(C)=C(O2)[C@H](C)[C@@H](O)[C@]1(C)OC (stereo not given in full) | 25 µM (≈ 18.2 µg/mL) | 39.8 nM | > 200 µM | 7.59 nM | 6.3 µM (≈ 4.6 µg/mL) | 1.6 µM (≈ 1.17 µg/mL) | 19.5 nM | 200 µM (≈ 146 µg/mL) |  | 
2 | CCC1OC(=O)C(C)C(O[C@H]2C[C@@](C)(OC)[C@@H](O)C(C)O2)C(C)[C@@H](OC2OC(C)CC(N(C)CC)[C@H]2O)[C@]2(C)CC(C)=C(O2)[C@H](C)[C@@H](O)[C@]1(C)OC (stereo not given in full) | > 200 µM | 8.32 nM | > 200 µM | 4.68 nM | > 200 µM | 50 µM (≈ 37.2 µg/mL) | 22.9 nM | > 200 µM |  | 
3 | CCC1OC(=O)C(C)C(O[C@H]2C[C@@](C)(OC)[C@@H](O)C(C)O2)C(C)[C@@H](OC2OC(C)CC(N(C)C)[C@H]2O)[C@]2(C)CC(C)C3(O[C@]1(C)[C@H](O)[C@H]3C)O2 (stereo not given in full) |  | 170 nM |  | 155 nM |  |  | > 10000 nM |  | >70 µg/kg | 
4 | CCC1OC(=O)C(C)C(O[C@H]2C[C@@](C)(OC)[C@@H](O)C(C)O2)C(C)[C@@H](OC2OC(C)CC(N(C)C(C)C)[C@H]2O)[C@]2(C)CC(C)=C(O2)[C@H](C)[C@@H](O)[C@]1(C)OC (stereo not given in full) | > 200 µM | 15.1 nM | > 200 µM | 6.92 nM | > 200 µM | 200 µM (≈ 152 µg/mL) | 12.9 nM | > 200 µM | 0.44 µg/kg | 1.2 µg/kg
5 | CC[C@H]1OC(=O)[C@H](C)[C@@H](O[C@H]2C[C@@](C)(OC)[C@@H](O)[C@H](C)O2)[C@H](C)[C@@H](OC2O[C@H](C)C[C@H](N(C)C)[C@H]2O)C2(C)CC(C)=C(O2)[C@H](C)[C@@H](O)[C@]1(C)O (single isomer, unassigned) |  | 224 nM |  | 3.39 nM |  |  |  |  | 1 µg/kg | 
6 | CC[C@H]1OC(=O)[C@H](C)[C@@H](O[C@H]2C[C@@](C)(OC)[C@@H](O)[C@H](C)O2)[C@H](C)[C@@H](OC2O[C@H](C)C[C@H](N(C)C)[C@H]2O)C(C)(O)C[C@@H](C)C(=O)[C@H](C)[C@@H](O)[C@]1(C)O (single isomer, unassigned) [ERYTHROMYCIN] | 0.39 µM (≈ 0.286 µg/mL) |  | 100 µM (≈ 73.4 µg/mL) |  | 0.39 µM (≈ 0.286 µg/mL) | 0.1 µM (≈ 0.0734 µg/mL) | 316 nM | 6.3 µM (≈ 4.62 µg/mL) | 32.3 µg/kg | 
